Like-named read-outs stand apart in the source and are kept apart here.
What was measured:
[1] = MDR1/BCRP assay: permeability in cPgp-KO-MDCK-WT cells; assay type: in vitro ADME; conditions: dog, pH 7.4
Procedure, shortened: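 Compounds at 1 μM were dosed apically or basolaterally on 5-day confluent cPgp-KO-MDCK monolayers, HBSS/HEPES/glucose pH 7.4 donor and receiver with 1% BSA, duplicate wells. Receiver samples at 2 h were analysed by LC-MS/MS to give A→B and B→A Papp plus % recovery; TEER confirmed integrity.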

[2] = Hepatocyte stability assay, human; assay type: in vitro ADME; conditions: human hepatocytes, 1 μM
Procedure, shortened: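 Cryopreserved hepatocytes (viability ≥85%) incubated with 1 μM compound at 1×10^6 cells/mL in KHB, 37 °C, 95% air/5% CO2, sampled at 0, 1, 3 and 6 h. Parent remaining quantified by LC-MS/MS; half-life from first-order exponential fit (ln2/k), scaled to intrinsic hepatic clearance.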

[3] = test system: BxPC-3 (pancreas, adenocarcinoma; MTAP-Deleted); assay: In vitro cell viability assay (CellTiter-Glo, 9 days), BxPC-3; assay type: cell-based; conditions: Homo sapiens, BXPC-3, 216 h, 9-day treatment
Procedure: Some Compounds of the Disclosure were tested in Calu-6 (Vendor: ATCC; Cat #HTB-56; Description: lung, adenocarcinoma), LU99 (Vendor: JCRB; Cat #JCRB0080; Description: lung, giant cell carcinoma), SW780 (Vendor: ATCC; Cat #CRL-2169; Description: bladder, urothelial carcinoma), and BxPC-3 (Vendor: ATCC; Cat #CRL-1687; Description: pancreas, adenocarcinoma) cellular viability assays according to the general protocol. Seeded cells into 96-well plate and incubated overnight. Seeded an additional 10 wells per cell line in an additional 96-well plate for assessing Time Zero luminescence and incubated overnight. To treatment plates, added compounds into each well using Tecan D300e dispenser (nine three-fold dilutions starting at […]) and incubated for 9 days. Time Zero (no compound treatment, luminescence assessed on day 1) and 9-day treatment (luminescence assessed on day 10) plates were assessed using the same CellTiter-Glo® substrate protocol. Thawed CellTiter-Glo® Buffer and lyophilized CellTiter-Glo® substrate and equilibrated to room temperature prior to use. Transferred 100 ml CellTiter-Glo® Buffer into amber bottle containing CellTiter-Glo® substrate to reconstitute the lyophilized enzyme/substrate mixture. For Time Zero and 9-day treatment plates, removed all plating media. Added 100 μl fresh media/well. Added 100 μl CellTiter-Glo® Reagent per well. Mixed contents for 10 min on an orbital shaker to lyse cells. Recorded luminescence with Perkin Elmer Envision 2105 machine. Analyzed the data with GraphPad software.

[4] = PK data (IV/PO) in cynomolgus monkey; conditions: in vivo; for clearance: read-out: Observed CL (converted); for Vd: read-out: Vss

| Papp A→B at 2 h, 1 µM [1] [×10⁻⁶ cm/s] | Human Predicted Hepatocyte CL [2] [mL/min/kg] | GI50 [3] [nM] | half-life ([4]; IV 0.25 mg/Kg) [h] | clearance ([4]; IV 0.25 mg/Kg) [mL/min/kg] | Vd ([4]; IV 0.25 mg/Kg) [L/kg] | bioavailability ([4]; PO 0.5 mg/Kg) [%] | half-life ([4]; IV 0.33 mg/Kg) [h] | clearance ([4]; IV 0.33 mg/Kg) [mL/min/kg] | Vd ([4]; IV 0.33 mg/Kg) [L/kg] | SMILES |
| --- | --- | --- | --- | --- | --- | --- | --- | --- | --- | --- |
| 16.6 | 2.83 | 7 | 15.4 | 2 | 2.53 | 84 | – | – | – | Nc1nc2cnc(C(=O)N3CCC[C@@H]4Oc5cc(C(F)(F)F)cc(F)c5[C@@H]43)cc2n2cncc12 (single isomer, unassigned) [Fg-53] |
| 9.5 | 4 | 11 | 10.7 | 2.17 | 2 | – | – | – | – | Nc1nc2cnc(C(=O)N3CCC[C@@H]4Oc5cc(OC(F)(F)F)cc(F)c5[C@@H]43)cc2n2cncc12 (single isomer, unassigned) [Fg-55] |
| 15.3 | 5.83 | 10 | – | – | – | – | 5.9 | 2.5 | 1.29 | Nc1nc2ccc(C(=O)N3CCC[C@@H]4Oc5cc(C(F)(F)F)ccc5[C@@H]43)cc2n2cncc12 [Ff-111, (4-aminoimidazo[1,5-a]quinoxalin-8-yl)((4aS,9bS)-7-(trifluoromethyl)-3,4,4a,9b-tetrahydrobenzofuro[3,2-b]pyridin-1(2H)-yl)methanone] |
| 16.3 | 5 | 23 | – | – | – | – | 5.8 | 4 | 1.9 | Cc1ncc2c(N)nc3cnc(C(=O)N4CCC[C@@H]5Oc6cc(OC(F)(F)F)ccc6[C@@H]54)cc3n12 [Ff-340, (4-amino-1-methylimidazo[1,5-a]pyrido[3,4-e]pyrazin-8-yl)((4aS,9bS)-7-(trifluoromethoxy)-3,4,4a,9b-tetrahydrobenzofuro[3,2-b]pyridin-1(2H)-yl)methanone] |
| 10.3 | 3.67 | 14 | 8 | 3.33 | 2.15 | – | – | – | – | Nc1nc2cnc(C(=O)N3CCC[C@@H]4Oc5cc(OC(F)(F)F)ccc5[C@@H]43)cc2n2cncc12 [Ff-341, (4-aminoimidazo[1,5-a]pyrido[3,4-e]pyrazin-8-yl)((4aS,9bS)-7-(trifluoromethoxy)-3,4,4a,9b-tetrahydrobenzofuro[3,2-b]pyridin-1(2H)-yl)methanone] |

Source: patent publication US12448388B2, “PRMT5 inhibitors and uses thereof” (Gilead Sciences, Inc., priority 2023, dated 2025)
